Experimental data published in patent US5656288A, “Stable pharmaceutical compositions containing tiludronate hydrates and process for producing the pharmaceutical compositions” (Sanofi Winthrop, Inc., priority 1995, dated 1997).
“Also recorded” adds a separate entry of the source. Blank lines part the entries; values can stand above or below the compound they belong to.

Key:
[1] = Hysteresis / reversibility of water uptake on moving to lower relative humidity; assay type: physicochemical; conditions: for stability / reversion at low relative humidity: moved to humidity as low as 31% RH after 75-95% RH
Experimental: (§1) The samples were held for 2 weeks at each humidity at 20° C. and analyzed by TGA for moisture content. The samples were also analyzed by FTIR to determine if spectroscopic changes were observed. Samples which increased in moisture content after 2 weeks were then moved to lower relative humidity to determine if the water uptake was reversible.
Hysteresis data (samples stored at high humidity were moved from high to low humidity) for samples stressed at 75-95% RH is shown in FIG. 1b. […] If the moisture was hygroscopic in nature one would expect the moisture level to decrease as the humidity level is decreased.

[2] = Intrinsic dissolution rate in acetate buffer pH 4.8, 20° C.; assay type: physicochemical; conditions: for intrinsic dissolution rate (average slope): acetate buffer pH 4.8, 20° C., 100 RPM, triplicate
Experimental: F) Intrinsic Dissolution Rate
The intrinsic dissolution rates of hemihydrate, the monohydrate form and tetrahydrate form were determined in acetate buffer (pH=4.8) at 20° C. A disk (0.5 cm^2) was compressed under the following conditions: 225-250 mg drug, 4000 lbs pressure, and 30 seconds compaction time. The disk was dissolved in a Vander Kamp VK 6000 dissolution bath in 250 ml solvent at 100 RPM. Samples were withdrawn at 2, 4, 6, 8, 10 and 15 minutes and diluted by a factor of 2 for UV analysis. Samples were analyzed at 264 nm with the Hewlett Packard 8451A diode array spectrophotometer. Intrinsic dissolution plots were generated by plotting concentration/area vs. time and determining the slope by linear regression. Each dissolution experiment was run in triplicate.

[3] = Crystal form change under humidity stress (FTIR, XRPD, TGA); assay type: physicochemical; conditions: for changes by TGA / FTIR at low relative humidity: 12-58% RH, 2 weeks; for crystal form change (FTIR, TGA): 75-85% RH (75% and 84% RH samples); for crystal form change (FTIR, XRPD, TGA): 95% RH
Experimental: (§2) Samples of disodium tiludronate hemihydrate were stressed at humidity levels of 12-95% RH using different saturated salt solutions to obtain a range of relative humidity. The salt solutions used and the corresponding relative humidity are tabulated below:
as §1
C) Fourier Transform Infrared Spectroscopy (FTIR)
FTIR spectra were obtained on the Nicolet 730 system equipped with an MCT detector. Samples were run as KBr dispersions at approximately 1% concentration.
D) X-Ray Powder Diffraction (XRPD)
XRPD data was provided by Kodak Analytical Technology Division (Rochester, N.Y.) using a Rigaku RU 300 system at […].

[4] = Hygroscopicity: water content by TGA after storage at defined relative humidity; assay type: physicochemical
Experimental: as §2, §1
A sample of the monohydrate form was also stressed with respect to humidity. Samples were stressed at 58-95% RH at 20° C. for 2 weeks.
B) Thermal Gravimetric Analysis (TGA)
Thermal Gravimetric Analysis was performed on the Perkin Elmer TGA-7 system. Samples were weighed into a platinum pan and scanned at a rate of 5° C./min. under nitrogen purge gas.

[5] = Solubility in acetate buffer pH 4.8, 20° C.; assay type: physicochemical; conditions: for solubility (concentration in acetate buffer): 30 min
Experimental: The solubility of unstressed hemihydrate, the monohydrate form and a sample which was equilibrated at 95% RH, i.e. tetrahydrate were compared in acetate buffer. A pH value of 4.8 was chosen. Approximately 250 mg of drug was added to 1 ml of solvent and agitated with a laboratory rotator at 20° C. The sample was filtered (0.45 micron) and diluted (200 ul to 25 ml). This solution was then diluted by a factor of 5 prior to UV analysis. Samples were analyzed at time points of 0.5, 3.0, and 24 hours with the Hewlett Packard 8451A diode array spectrophotometer. Absorbance was measured at 264 nm versus a standard prepared in acetate buffer. The solubility was determined (based on anhydrous drug) for two different samples (of each form) at each time point.

[6] = ambient temperature and humidity
[7] = listed as disodium tiludronate hemihydrate, hemihydrate

stability / reversion at low relative humidity [1, 7]: did not revert at 31% RH
moisture level on moving stepwise to lower relative humidity (hysteresis) ([1]; samples stressed at 75-95% RH): not reversible
intrinsic dissolution rate (average slope) ([2]; hemihydrate): 0.0332 mg/(ml*cm^2 *min)
changes by TGA / FTIR at low relative humidity ([3]; hemihydrate): no changes in spectra
changes by TGA / FTIR at low relative humidity [3, 7]: no changes by TGA and FTIR
water content (TGA analysis) ([4]; 12-58% RH, 20° C., 2 weeks): approximately 5%
water content ([4]; 75% RH, 20° C., 2 weeks): 8.4%
water content ([4]; 84% RH, 20° C., 2 weeks): 13.7%
moisture level / total weight loss (TGA) ([4]; 95% RH, 20° C., 2 weeks): 16.4%
solubility at 0.5 h ([5]; acetate buffer, pH 4.8, aqueous buffer, pH 4.8, 20° C., 0.5 hours, based on anhydrous drug, read-out: solubility (concentration in acetate buffer)): 147 mg/mL
solubility at 24 hours relative to tetrahydrate ([5]; pH 4.8, 20° C., 24 hours): equivalent to the tetrahydrate
initial solubility relative to tetrahydrate ([5]; pH 4.8, 20° C., initial): higher than the tetrahydrate form
FTIR analysis of residual solid in solubility samples ([5]; pH 4.8, residual solid): conversion to the tetrahydrate
SMILES: O=P(O)(O)C(Sc1ccc(Cl)cc1)P(=O)(O)O [hemihydrate, disodium 4-chlorophenylthiomethylenebisphosphonate hemihydrate]
FTIR analysis of the disk at the end of the dissolution experiment ([2]; hemihydrate): conversion to the tetrahydrate form was occurring
crystal form change (FTIR, TGA) ([3]; hemihydrate): partial change to monohydrate and tetrahydrate
crystal form change (FTIR, TGA) [3, 7]: partial transformation to the tetrahydrate form; also recorded: mixture of forms
crystal form change (FTIR, XRPD, TGA) ([3]; hemihydrate): conversion of the hemihydrate to the tetrahydrate form; also recorded: significant change in the FTIR spectra and X-ray pattern indicative of crystalline rearrangement
crystal form change (FTIR, XRPD, TGA) [3, 7]: crystalline changes accompany the increase in moisture content; also recorded: changed to a tetrahydrate form

SMILES: O=P(O)(O)C(Sc1ccc(Cl)cc1)P(=O)(O)O [Tiludronate, disodium 4-chlorophenylthiomethylenebisphosphonate]
moisture content as relative humidity is increased ([4]; increasing RH): does not increase in moisture content as relative humidity is increased until a relative humidity is reached where crystalline changes occur

intrinsic dissolution rate (average slope) ([2]; monohydrate): 0.0351 mg/(ml*cm^2 *min)
solubility (concentration in acetate buffer) ([5]; pH 4.8, 20° C., 0.5 hours, based on anhydrous drug, monohydrate): 175 mg/mL
SMILES: O=P(O)(O)C(Sc1ccc(Cl)cc1)P(=O)(O)O [monohydrate, disodium 4-chlorophenylthiomethylene-bisphosphonate monohydrate]
FTIR analysis of the disk at the end of the dissolution experiment ([2]; monohydrate): did not show transformation to the tetrahydrate

intrinsic dissolution rate (average slope) [2]: 0.0359 mg/(ml*cm^2 *min)
crystal form change (FTIR, XRPD, TGA) [3]: little evidence of the monohydrate form
solubility (concentration in acetate buffer) ([5]; pH 4.8, 20° C., 0.5 hours, based on anhydrous drug): 140 mg/mL
SMILES: O=P(O)(O)C(Sc1ccc(Cl)cc1)P(=O)(O)O [tetrahydrate, disodium 4-chlorophenylthiomethylenebisphosphonate]
stability / reversion at low relative humidity [1]: stability of the tetrahydrate form at humidity levels as low as 31% RH
conversion to monohydrate or hemihydrate [6]: not convened to either the monohydrate or hemihydrate form thereof at ambient temperature and humidity
